Laboratory results as given in ChEMBL document CHEMBL4330101, “Identification of BR101549 as a lead candidate of non-TZD PPARγ agonist for the treatment of type 2 diabetes: Proof-of-concept evaluation and SAR” (Bioorg Med Chem Lett, 2019).

What was measured:
[1] = biological target: T1, Type-1 angiotensin II receptor (Homo sapiens, UniProt P30556); assay: Antagonist activity at type-1 angiotensin 2 receptor (unknown origin) by calcium mobilizing assay; format: functional
T1 sequence (P30556 whole entry): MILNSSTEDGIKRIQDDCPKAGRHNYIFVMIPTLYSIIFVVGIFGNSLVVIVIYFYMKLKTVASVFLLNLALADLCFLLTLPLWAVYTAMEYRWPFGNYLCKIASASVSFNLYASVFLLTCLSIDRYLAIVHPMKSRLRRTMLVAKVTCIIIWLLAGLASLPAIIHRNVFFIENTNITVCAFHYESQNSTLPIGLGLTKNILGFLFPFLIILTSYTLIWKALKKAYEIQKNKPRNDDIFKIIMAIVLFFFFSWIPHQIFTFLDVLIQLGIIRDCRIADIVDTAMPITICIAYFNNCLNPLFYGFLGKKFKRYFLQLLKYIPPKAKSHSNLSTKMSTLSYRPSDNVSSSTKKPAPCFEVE

[2] = biological target: T2, Peroxisome proliferator-activated receptor gamma (Homo sapiens, UniProt P37231); assay: Agonist activity at human PPARgamma
T2 sequence (P37231 whole entry): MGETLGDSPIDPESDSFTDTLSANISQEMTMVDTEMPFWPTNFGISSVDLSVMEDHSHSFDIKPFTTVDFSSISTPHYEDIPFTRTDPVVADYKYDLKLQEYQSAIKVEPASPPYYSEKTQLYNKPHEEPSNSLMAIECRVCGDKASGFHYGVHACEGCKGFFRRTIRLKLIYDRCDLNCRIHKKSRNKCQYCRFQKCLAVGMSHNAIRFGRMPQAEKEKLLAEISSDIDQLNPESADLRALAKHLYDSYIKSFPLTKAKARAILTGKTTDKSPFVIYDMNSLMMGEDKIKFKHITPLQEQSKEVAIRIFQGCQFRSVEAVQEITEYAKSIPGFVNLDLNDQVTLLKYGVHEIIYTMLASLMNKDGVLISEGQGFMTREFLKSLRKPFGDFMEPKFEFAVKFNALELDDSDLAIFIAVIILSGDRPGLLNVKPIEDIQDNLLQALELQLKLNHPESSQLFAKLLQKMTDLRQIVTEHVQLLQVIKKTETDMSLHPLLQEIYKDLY

[3] = biological target: T3, Peroxisome proliferator-activated receptor gamma (Homo sapiens) (UniProt P37231); assay: Agonist activity at human PPARgamma at 1 uM relative to pioglitazone
T3 sequence (whole entry): T2 sequence (P37231 whole entry)

[4] = Stability in mouse liver microsomes assessed as parent compound remaining after 30 mins; format: ADME, Microsome; conditions: read-out: Stability
[5] = Stability in human liver microsomes assessed as parent compound remaining after 30 mins; format: ADME, Microsome; conditions: read-out: Stability
[6] = Drug metabolism in mouse liver S9 fraction assessed as acylglucuronide formation; format: ADME, subcellular
[7] = Drug metabolism in rat liver S9 fraction assessed as acylglucuronide formation; format: ADME, subcellular
[8] = Drug metabolism in human liver S9 fraction assessed as acylglucuronide formation; format: ADME, subcellular
[9] = Stability in rat liver microsomes assessed as parent compound remaining after 30 mins; format: ADME, Microsome; conditions: read-out: Stability
[10] = Stability in dog liver microsomes assessed as parent compound remaining after 30 mins; format: ADME, Canis lupus familiaris, Microsome; conditions: read-out: Stability
[11] = biological target: T3, Peroxisome proliferator-activated receptor gamma (Homo sapiens); assay: Agonist activity at human PPARgamma at 1 uM relative to telmisartan
[12] = Drug level in mouse liver S9 fraction treated with BR101549; format: ADME, subcellular
[13] = Drug level in mouse liver S9 fraction treated with 2-(2-butyl-4-isopropyl-6-oxo-1-((2'-(5-oxo-4,5-dihydro-1,2,4-oxadiazol-3-yl)biphenyl-4-yl)methyl)-1,6-dihydropyrimidin-5-yl)acetic acid; format: ADME, subcellular
[14] = Drug level in rat liver S9 fraction treated with BR101549; format: ADME, subcellular
[15] = Drug level in rat liver S9 fraction treated with 2-(2-butyl-4-isopropyl-6-oxo-1-((2'-(5-oxo-4,5-dihydro-1,2,4-oxadiazol-3-yl)biphenyl-4-yl)methyl)-1,6-dihydropyrimidin-5-yl)acetic acid; format: ADME, subcellular
[16] = Drug level in human liver S9 fraction treated with BR101549; format: ADME, subcellular
[17] = Drug level in human liver S9 fraction treated with 2-(2-butyl-4-isopropyl-6-oxo-1-((2'-(5-oxo-4,5-dihydro-1,2,4-oxadiazol-3-yl)biphenyl-4-yl)methyl)-1,6-dihydropyrimidin-5-yl)acetic acid; format: ADME, subcellular
Mus musculus = assay: Antidiabetic activity in db/db mouse assessed as random blood glucose level at 20 mg/kg, po administered once daily for 13 days measured post last dose (reference value: 530 mg/dl); format: functional
[18] = Toxicity in db/db mouse assessed as body weight at 20 mg/kg, po administered once daily for 13 days (reference value: 33.5 g); format: organism-based; conditions: in vivo, 312 h

| Compound | EC50 [2] [nM] | max activation [3] [%] | remaining at 0.5 h [4] [%] | remaining at 0.5 h [5] [%] | also measured |
| --- | --- | --- | --- | --- | --- |
| CCCCc1nc(C(C)C)c(CC(=S)N2CCCC2)c(=O)n1Cc1ccc(-c2ccccc2-c2noc(=O)[nH]2)cc1 | 3100 | 66 |  |  | IC50 [1]: 2.2 nM |
| CCCCOC(=O)Cc1c(C(C)C)nc(CCCC)n(Cc2ccc(-c3ccccc3-c3noc(=O)[nH]3)cc2)c1=O | 1000 | 73 | 21.6 | 7.1 |  |
| CC#CCOC(=O)Cc1c(C)nc(CCCC)n(Cc2ccc(-c3ccccc3-c3noc(=O)[nH]3)cc2)c1=O | 2530 | 99 | 18.3 | 32 |  |
| CCCCc1nc(C(C)C)c(CC(=O)OC2CC2)c(=O)n1Cc1ccc(-c2ccccc2-c2noc(=O)[nH]2)cc1 | 1360 | 89 | 11.4 | 10.3 |  |
| CCCCCOC(=O)Cc1c(C(C)C)nc(CCCC)n(Cc2ccc(-c3ccccc3-c3noc(=O)[nH]3)cc2)c1=O | 1090 | 54 | 19.7 | 10.6 |  |
| [2H]C([2H])(C(=O)OCC)c1c(C)nc(CCCC)n(Cc2ccc(-c3ccccc3-c3noc(=O)[nH]3)cc2)c1=O |  |  | 78.4 | 46.5 | remaining at 0.5 h [9]: 87.3%; remaining at 0.5 h [10]: 86.8% |
| CCCCc1nc(C(C)C)c(CC(=O)OC2CCCCC2)c(=O)n1Cc1ccc(-c2ccccc2-c2noc(=O)[nH]2)cc1 | 730 | 88 | 14.6 | 13.3 |  |
| CCCCc1nc(C(C)C)c(CC(=O)OCCC)c(=O)n1Cc1ccc(-c2ccccc2-c2noc(=O)[nH]2)cc1 | 1500 | 133 | 12.6 | 7.2 |  |
| CCCCc1nc(C(C)C)c(CC(=O)O[C@@H]2O[C@H](C(=O)O)[C@@H](O)[C@H](O)[C@H]2O)c(=O)n1Cc1ccc(-c2ccccc2-c2noc(=O)[nH]2)cc1 |  |  |  |  | Drug metabolism [12]: Metabolite_Notdetected; Drug metabolism [13]: Metabolite_Detected; Drug metabolism [14]: Metabolite_Notdetected; Drug metabolism [15]: Metabolite_Detected; Drug metabolism [16]: Metabolite_Notdetected; Drug metabolism [17]: Metabolite_Detected |
| CCCCc1nc(C)c(CC(=O)OCC2CCCCC2)c(=O)n1Cc1ccc(-c2ccccc2-c2noc(=O)[nH]2)cc1 | 1320 | 90 | 8.9 | 11.5 |  |
| CCCCOC(=O)Cc1c(C)nc(CCCC)n(Cc2ccc(-c3ccccc3-c3noc(=O)[nH]3)cc2)c1=O | 2250 | 116 | 10.2 | 2.8 |  |
| CCc1ccc(CCOc2ccc(CC3SC(=O)NC3=O)cc2)nc1 (stereo unspecified) [PIOGLITAZONE] |  |  |  |  | Activity (Mus musculus): 213 mg/dL; Activity [18]: 32.3 g |
| CCCCc1nc(C2CC2)c(CC(=O)OC)c(=O)n1Cc1ccc(-c2ccccc2-c2noc(=O)[nH]2)cc1 | 2360 | 83 | 16.4 | 24.4 |  |
| CCCCc1nc(C(C)C)c(CC(=O)OC(CC)CC)c(=O)n1Cc1ccc(-c2ccccc2-c2noc(=O)[nH]2)cc1 |  |  | 14.6 | 7.7 |  |
| CCCCc1nc(C(C)C)c(C(C)C(=O)OCC)c(=O)n1Cc1ccc(-c2ccccc2-c2noc(=O)[nH]2)cc1 (stereo unspecified) |  |  | 28 | 11 | remaining at 0.5 h [9]: 19.2%; remaining at 0.5 h [10]: 43.8%; fold change (FC) [11]: 1.3 |
| CCCCc1nc(C)c(CC(=O)OCC(C)C)c(=O)n1Cc1ccc(-c2ccccc2-c2noc(=O)[nH]2)cc1 | 1530 | 114 | 7.7 | 2.4 |  |

Continued, in another order:

| EC50 [2] [nM] | max activation [3] [%] | remaining at 0.5 h [4] [%] | remaining at 0.5 h [5] [%] | Compound | also measured |
| --- | --- | --- | --- | --- | --- |
| 1810 | 101 | 13 | 20 | CCCCc1nc(C)c(CC(=O)OCC2CC2)c(=O)n1Cc1ccc(-c2ccccc2-c2noc(=O)[nH]2)cc1 |  |
| 1000 | 98 | 10.7 | 3.9 | CCCCc1nc(C)c(CC(=O)OC2CCCCC2)c(=O)n1Cc1ccc(-c2ccccc2-c2noc(=O)[nH]2)cc1 |  |
| 10300 | 2 | 100 | 86.8 | CCCCc1nc(C(C)C)c(CC(=O)O)c(=O)n1Cc1ccc(-c2ccccc2-c2noc(=O)[nH]2)cc1 | Drug metabolism [6]: Metabolite_Detected; Drug metabolism [7]: Metabolite_Detected; Drug metabolism [8]: Metabolite_Detected |
|  |  | 12.9 | 46.6 | CCCCc1nc(C)c(CC(=O)OCC)c(=O)n1Cc1ccc(-c2ccccc2-c2noc(=O)[nH]2)cc1 | remaining at 0.5 h [9]: 14.3%; remaining at 0.5 h [10]: 50.9%; fold change (FC) [11]: 0.93; fold change (FC) ([11]; tested as the 2H-labelled form): 0.82 |
| 1230 | 128 | 13.7 | 8.8 | CCCCc1nc(C(C)C)c(CC(=O)OCC(C)C)c(=O)n1Cc1ccc(-c2ccccc2-c2noc(=O)[nH]2)cc1 |  |
| 3310 | 62 | 12.8 | 34.5 | CCCCc1nc(C)c(CC(=O)OC2CC2)c(=O)n1Cc1ccc(-c2ccccc2-c2noc(=O)[nH]2)cc1 |  |
| 1060 | 103 | 16.4 | 13.7 | CC#CCOC(=O)Cc1c(C(C)C)nc(CCCC)n(Cc2ccc(-c3ccccc3-c3noc(=O)[nH]3)cc2)c1=O |  |
| 7360 | 74 | 47.1 | 69.6 | CCCCc1nc(C)c(CC(=O)OC)c(=O)n1Cc1ccc(-c2ccccc2-c2noc(=O)[nH]2)cc1 |  |
| 2620 | 96 | 9.4 | 10.5 | CCCCc1nc(C(C)C)c(CC(=O)OC)c(=O)n1Cc1ccc(-c2ccccc2-c2noc(=O)[nH]2)cc1 |  |
| 2780 | 65 |  |  | CCCCc1nc(C(C)C)c(CC(=O)OCC(F)(F)F)c(=O)n1Cc1ccc(-c2ccccc2-c2noc(=O)[nH]2)cc1 |  |
| 1660 | 114 | 4 | 17.5 | CCCCc1nc(C)c(CC(=O)OC(C)C)c(=O)n1Cc1ccc(-c2ccccc2-c2noc(=O)[nH]2)cc1 |  |
|  |  | 14 | 8.2 | CCCCc1nc(C(C)(C)C)c(CC(=O)OCC)c(=O)n1Cc1ccc(-c2ccccc2-c2noc(=O)[nH]2)cc1 | fold change (FC) [11]: < 1 |
| 2720 | 87 | 14 | 9.9 | CCCCc1nc(C2CC2)c(CC(=O)OC(C)C)c(=O)n1Cc1ccc(-c2ccccc2-c2noc(=O)[nH]2)cc1 |  |
